Laboratory results as given in patent publication US20070135448A1, “Use of cathepsin k inhibitors for treating of severe bone loss diseases” (priority 2003, published 2007).

Experiments:
postmenopausal women = assay: 12-week double-blind placebo controlled phase IIA study, biochemical markers of bone resorption and formation; assay type: in vivo, human
Description: In a 12-week treatment, multicenter, double-blind, randomized, placebo-controlled, parallel group, a dose-ranging, safety, tolerability and efficacy trial with Compound A in postmenopausal women, with 3 weeks follow-up is conducted.
The primary objectives of the study are to assess the effect of Compound A on biochemical markers of bone resorption and bone formation, and to evaluate its safety and tolerability profile. Secondary objectives are to assess the changes in biochemical markers after the end of treatment, and to study the pharmacokinetics of Compound A and its metabolite during and after 12 weeks of treatment.
The population of subjects is normal healthy postmenopausal women. The reason for not investigating osteopenic women is the following: The efficacy endpoints of the study are biochemical markers of bone turnover. These variables are not directly correlated with BMD in man. […] They are at least 5 years postinenopause, mainly because biomarkers are expected to fluctuate less in these women than in the perimenopause. […]
Four doses are tested, 5, 10, 25, and 50 mg od. The duration of the study is 12 weeks, with a 3-week follow-up, 12 weeks treatment allows to assess the timecourse of biomarkers of both, bone resorption and bone formation and to ascertain that a steady-state in biomarkers is achieved.

[1] = test system: ovariectomized (OVX) cynomolgus monkeys; assay: Tolerability in the 18 month OVX cynomolgus monkey study; assay type: in vivo; details: for Tolerability: 18 months
Description: (§1) One hundred purpose-bred female cynomolgus monkeys (Macaca fascicularis), 12-13 years of age with closed growth plates are used for this study conducted in compliance with GLP. Eighty animals underwent bilateral ovariectomy and monkeys assigned to the sham group (S) underwent sham surgery. They are dosed twice daily by oral gavage with vehicle (distilled water) or COMPOUND A maleate (COMPOUND A-AF) for 18 months (Table 1).
Ovariectomized (OVX) cynomolgus monkeys are treated orally for 18 months with 3, 10, or 50/30 mg/kg COMPOUND A maleate twice daily (bid).

[2] = test system: ovariectomized (OVX) cynomolgus monkeys; assay: Mineral apposition rate (MAR) at the femoral neck, OVX cynomolgus monkeys; assay type: in vivo, cynomolgus monkeys (Macaca fascicularis)
Description: as §1
Mineral apposition rate (MAR), an indicator of bone formation, is reduced at cancellous bone for the femoral neck by the mid and high dose (FIG. 6) consistent with the action of an inhibitor of bone turnover.

[3] = test system: ovariectomized (OVX) cynomolgus monkeys; assay: 3-point bending test of midshaft femur, OVX cynomolgus monkeys after 18 months treatment; assay type: in vivo, cynomolgus monkeys (Macaca fascicularis); details: mean ± SEM; for Max load: n = 19-20
Description: as §1
(§2) DXA (Dual Energy X-ray Absorptiometry) of the lumbar spine and femur is performed twice prior to and at 3 months intervals during treatment. Compression test of third lumbar vertebra and a three-point bending test for the midshaft femur are carried out according to standard procedures. In brief, the cranial and caudal ends of each vertebral body are cut off to obtain a vertebral body specimen with two parallel surfaces and a height of approximately 7 mm. Each specimen is placed between two plates and a load applied at a constant displacement rate of 6 mm/min until failure in an Instron Mechanical Testing Machine. The femur is placed on the lower supports of a three point bending fixture with the anterior side facing downward in an Instron Mechanical Testing Machine. Load is applied at a constant displacement rate of […] until failure.
(§3) All group data are first checked to ensure they meet the assumptions for parametric analysis (normality, homogeneity of variances). Data are transformed, if necessary, to meet the assumptions as closely as possible. Results using transformed data are used for interpretation. In general, data are analyzed by one-way analysis of variance (1-way ANOVA) for variables assessed only once during the treatment phase of the study. For variables assessed repeatedly during the treatment phase, a two-way (group, time) analysis of covariance (ANCOVA) with repeated measures on time is used. For each ANCOVA evaluation, average baseline data for individual animals is used as the covariate. Results are presented as Mean±SEM (standard error of mean).

[4] = test system: ovariectomized (OVX) cynomolgus monkeys; assay: Compression test of third lumbar vertebra (LV3), OVX cynomolgus monkeys after 18 months treatment; assay type: in vivo, cynomolgus monkeys (Macaca fascicularis)
Description: as §1
DXA (Dual Energy X-ray Absorptiometry) of the lumbar spine and femur is performed twice prior to and at 3 months intervals during treatment. Compression test of third lumbar vertebra and a three-point bending test for the midshaft femur are carried out according to standard procedures. In brief, the cranial and caudal ends of each vertebral body are cut off to obtain a vertebral body specimen with two parallel surfaces and a height of approximately 7 mm. […]
All group data are first checked to ensure they meet the assumptions for parametric analysis (normality, homogeneity of variances). […] In general, data are analyzed by one-way analysis of variance (1-way ANOVA) for variables assessed only once during the treatment phase of the study. For variables assessed repeatedly during the treatment phase, a two-way (group, time) analysis of covariance (ANCOVA) with repeated measures on time is used. […]

[5] = test system: ovariectomized (OVX) cynomolgus monkeys; assay: DXA bone mineral density of lumbar spine and femur in OVX cynomolgus monkeys, 18 months oral treatment; assay type: in vivo, cynomolgus monkeys (Macaca fascicularis)
Description: The present, 18 month long study is performed in order to assess the effect of COMPOUND A on bone in a non-human primate model of osteoporosis.
as §1, §2, §3

[6] = High group: 2 × 50 mg/kg/day 1st month, 2 × 30 months 2-18, oral
[7] = High group: 2 × 50 mg/kg/day 1st month, 2 × 30 months 2-18, oral, * p < 0.05 versus OVX
[8] = Low group: 2 × 3 mg/kg/day oral, 18 months
[9] = Low group: 2 × 3 mg/kg/day oral, 18 months, * p < 0.05 versus OVX
[10] = Mid group: 2 × 10 mg/kg/day oral, 18 months

Compound: CCCN1CCN(c2ccc(C(=O)NC3(C(=O)NCC#N)CCCCC3)cc2)CC1 [Compound A, N-[1-(cyanomethyl-carbamoyl)-cyclohexyl]-4-(4-propyl-piperazin-1-yl)-benzamide]
- Bone resorption marker serum CTX versus placebo (postmenopausal women; all doses except 5 mg (10, 25, 50 mg od), all time points, p<0.001): significant difference
- Action on bone resorption marker (sCTX1) (postmenopausal women; postmenopausal women, 5, 10, 25, 50 mg od, 12 weeks): potent and rapid action
- Bone formation markers (serum osteocalcin, BSAP) over time (postmenopausal women; postmenopausal women, 12 weeks): the decrease of suppression is less than that seen with the bone resorption markers
- Other resorption biomarkers (serum NTX, urinary NTX) (postmenopausal women; postmenopausal women, 12 weeks): support results seen with serum CTX
- Food intake and body weight ([1]; 50 mg/kg bid oral, first month (then reduced to 30 mg/kg bid)): decreases in food intake and body weight
- Tolerability ([1]; 3 and 10 mg/kg bid oral): well tolerated
- Body weight gain ([1]; High group after reduction to 30 mg/kg bid, until end of study): remains significantly lower until the end of the study
- Tolerability ([1]; OVX cynomolgus monkeys, oral twice daily, overall): generally well tolerated
- Mineral apposition rate (MAR) at the periosteal side of the femoral neck ([2]; all doses, even the low dose is active): highly significantly increased
- Mineral apposition rate (MAR) at cancellous bone for the femoral neck ([2]; mid and high dose): reduced
- Moment of inertia [3, 6]: 322 ± 20 mm^4
- Ultimate strength [3, 6]: 196 ± 4 N/mm^2
- Energy [3, 7]: 1276 ± 87 * mJ
- Toughness [3, 7]: 3.6 ± 0.2 MJ/m³
- Max load [3, 6]: 973 ± 45 N
- Moment of inertia [3, 8]: 322 ± 20 mm^4
- Ultimate strength [3, 8]: 195 ± 5 N/mm^2
- Energy [3, 9]: 1305 ± 91 * mJ
- Toughness [3, 9]: 3.7 ± 0.2 MJ/m³
- Max load [3, 8]: 972 ± 38 N
- Energy [3, 10]: 1126 ± 88 mJ
- Moment of inertia [3, 10]: 290 ± 16 mm^4
- Toughness [3, 10]: 3.3 ± 0.2 MJ/m³
- Ultimate strength [3, 10]: 193 ± 3 N/mm^2
- Max load [3, 10]: 894 ± 39 N
- Maximum load in LV3 compression test versus OVX ([4]; all treatment groups (L, M, H), 18 months): increase maximum load
- Maximum load in LV3 compression test, group H ([4]; group H, 50/30 mg/kg bid, p<0.01 versus OVX, p<0.05 versus Sham): increased above the group S level
- Whole femur BMD (DXA) compared to group O (OVX) ([5]; all three dose levels, over the whole 18 months period): significant increase
- Lumbar spine LV1-4 BMD (DXA), effect versus OVX ([5]; all three doses (3, 10, 50/30 mg/kg bid), 18 months, p<0.05 versus OVX): inhibit the effect of OVX
- Lumbar spine LV1-4 BMD (DXA), efficacy of group H relative to other doses ([5]; group H, 50/30 mg/kg bid): tended to be less efficacious
- Anterior-posterior diameter of the femur midshaft ([5]; groups L and H versus groups S and O): tends to be larger
- Whole femur BMD (DXA) compared to sham ([5]; treated groups, significant at month 9 for groups L and H and at month 18 for group M): even above sham for most time points
